Common to all, as to type: biochemical
One experiment concerns the target T1, BTK-WT (Homo sapiens, UniProt Q06187).
T1 construct: purified from insect cells as a full-length construct containing an N-terminal 6X-His tag; His6 (N); made in house; host or cells: insect cells (baculovirus Sf21 in Method B)
Briefly: Btk in vitro inhibitory activity (one of Method A TR-FRET, Method B electrophoretic mobility shift, Method C radiometric filter binding). The following applies: D-compounds panel data; read-out: IC50 BTK-WT.

A further experiment addresses LCK (Homo sapiens, UniProt P06239). Nature of the experiment: Inhibition of a panel of kinases, in vitro HotSpot kinase assay: LCK. The following applies: D-compounds panel data; 1 μM ATP; read-out: IC50 LCK.
The target of a further experiment is T2, ITK (Homo sapiens, UniProt Q08881).
T2 sequence (Q08881 1-620): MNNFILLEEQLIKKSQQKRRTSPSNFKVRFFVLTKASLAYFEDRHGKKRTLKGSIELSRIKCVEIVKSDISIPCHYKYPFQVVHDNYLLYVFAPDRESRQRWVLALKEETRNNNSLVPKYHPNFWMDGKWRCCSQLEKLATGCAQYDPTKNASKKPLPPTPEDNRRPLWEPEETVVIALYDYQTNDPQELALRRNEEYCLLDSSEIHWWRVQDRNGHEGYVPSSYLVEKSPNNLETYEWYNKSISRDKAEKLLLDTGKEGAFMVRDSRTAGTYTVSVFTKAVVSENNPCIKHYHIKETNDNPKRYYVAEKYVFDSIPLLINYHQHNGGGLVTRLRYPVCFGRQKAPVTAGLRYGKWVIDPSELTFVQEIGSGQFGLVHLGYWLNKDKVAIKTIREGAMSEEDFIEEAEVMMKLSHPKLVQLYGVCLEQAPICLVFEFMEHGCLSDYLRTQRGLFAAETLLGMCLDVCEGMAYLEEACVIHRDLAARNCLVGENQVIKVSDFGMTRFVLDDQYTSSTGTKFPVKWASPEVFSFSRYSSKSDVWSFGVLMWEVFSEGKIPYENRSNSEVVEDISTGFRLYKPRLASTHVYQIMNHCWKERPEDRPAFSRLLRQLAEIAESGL
Briefly: Inhibition of a panel of kinases, in vitro HotSpot kinase assay: ITK. The note with it: D-compounds panel data; 1 μM ATP. The procedure:
(§1) The degree of inhibition of a panel of kinases is determined using the in vitro HotSpot kinase assay (purified enzymes, ^33P-ATP, an appropriate substrate and 1 μM ATP).

The target of another experiment is EGFR (Homo sapiens, UniProt P00533). Briefly: Inhibition of a panel of kinases, in vitro HotSpot kinase assay: EGFR. The following applies: D-compounds panel data; 1 μM ATP. On the procedure: as §1
EGFR, sequence (P00533 25-1210): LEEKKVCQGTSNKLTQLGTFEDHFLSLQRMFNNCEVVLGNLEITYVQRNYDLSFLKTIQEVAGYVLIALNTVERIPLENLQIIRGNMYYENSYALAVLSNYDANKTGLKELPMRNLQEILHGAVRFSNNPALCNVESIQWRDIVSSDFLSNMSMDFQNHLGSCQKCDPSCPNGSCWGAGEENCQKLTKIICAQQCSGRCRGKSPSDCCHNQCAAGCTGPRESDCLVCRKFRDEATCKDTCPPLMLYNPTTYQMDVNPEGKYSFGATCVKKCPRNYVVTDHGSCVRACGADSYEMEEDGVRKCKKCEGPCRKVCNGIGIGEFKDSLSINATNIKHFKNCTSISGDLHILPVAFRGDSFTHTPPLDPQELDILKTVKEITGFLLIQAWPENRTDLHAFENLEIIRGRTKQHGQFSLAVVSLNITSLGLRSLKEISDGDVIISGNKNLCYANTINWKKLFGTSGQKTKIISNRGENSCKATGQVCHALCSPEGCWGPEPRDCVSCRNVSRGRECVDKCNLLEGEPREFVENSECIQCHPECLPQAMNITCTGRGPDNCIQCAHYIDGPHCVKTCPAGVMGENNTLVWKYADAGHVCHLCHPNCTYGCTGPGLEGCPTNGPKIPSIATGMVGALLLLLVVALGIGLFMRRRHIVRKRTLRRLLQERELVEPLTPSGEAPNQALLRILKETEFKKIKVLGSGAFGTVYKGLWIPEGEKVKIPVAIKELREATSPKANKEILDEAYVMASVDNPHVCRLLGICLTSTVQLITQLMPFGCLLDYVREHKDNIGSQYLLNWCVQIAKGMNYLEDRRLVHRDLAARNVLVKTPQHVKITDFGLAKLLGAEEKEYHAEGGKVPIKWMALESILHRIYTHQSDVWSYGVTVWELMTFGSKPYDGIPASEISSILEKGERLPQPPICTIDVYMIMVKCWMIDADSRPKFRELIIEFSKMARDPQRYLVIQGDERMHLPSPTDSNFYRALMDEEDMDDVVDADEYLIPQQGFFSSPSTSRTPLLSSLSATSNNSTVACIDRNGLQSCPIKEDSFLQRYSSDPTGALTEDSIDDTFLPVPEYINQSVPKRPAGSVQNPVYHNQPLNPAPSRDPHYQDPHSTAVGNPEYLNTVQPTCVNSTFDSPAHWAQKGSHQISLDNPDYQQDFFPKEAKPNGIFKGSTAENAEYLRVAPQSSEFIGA
A further experiment concerns the target SRC (Homo sapiens, UniProt P12931). Briefly: Inhibition of a panel of kinases, in vitro HotSpot kinase assay: SRC. The following applies: D-compounds panel data; 1 μM ATP. The procedure: as §1

Results on 14 compounds are retold here after US20210070748A1, “INHIBITORS OF BRUTONS TYROSINE KINASE” (Pharmacyclics LLC, priority 2015, published 2021).

T1 sequence (Q06187 whole entry): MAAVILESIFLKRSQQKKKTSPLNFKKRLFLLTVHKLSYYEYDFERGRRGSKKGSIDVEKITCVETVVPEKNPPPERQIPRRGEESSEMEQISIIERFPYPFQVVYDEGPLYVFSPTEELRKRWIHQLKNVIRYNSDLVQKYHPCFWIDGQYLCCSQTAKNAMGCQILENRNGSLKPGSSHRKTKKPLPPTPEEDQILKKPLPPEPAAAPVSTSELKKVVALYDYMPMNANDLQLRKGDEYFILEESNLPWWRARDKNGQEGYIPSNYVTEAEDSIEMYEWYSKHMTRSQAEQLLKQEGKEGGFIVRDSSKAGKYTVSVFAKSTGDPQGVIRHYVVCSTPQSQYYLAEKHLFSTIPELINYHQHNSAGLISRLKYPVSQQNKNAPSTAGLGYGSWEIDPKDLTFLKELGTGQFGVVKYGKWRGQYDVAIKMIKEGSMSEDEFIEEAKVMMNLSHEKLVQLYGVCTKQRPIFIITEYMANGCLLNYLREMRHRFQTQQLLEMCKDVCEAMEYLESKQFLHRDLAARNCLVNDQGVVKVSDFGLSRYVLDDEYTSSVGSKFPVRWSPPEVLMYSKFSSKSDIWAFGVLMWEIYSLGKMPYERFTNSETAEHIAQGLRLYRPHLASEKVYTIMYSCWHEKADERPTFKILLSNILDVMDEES
LCK, sequence (P06239 whole entry): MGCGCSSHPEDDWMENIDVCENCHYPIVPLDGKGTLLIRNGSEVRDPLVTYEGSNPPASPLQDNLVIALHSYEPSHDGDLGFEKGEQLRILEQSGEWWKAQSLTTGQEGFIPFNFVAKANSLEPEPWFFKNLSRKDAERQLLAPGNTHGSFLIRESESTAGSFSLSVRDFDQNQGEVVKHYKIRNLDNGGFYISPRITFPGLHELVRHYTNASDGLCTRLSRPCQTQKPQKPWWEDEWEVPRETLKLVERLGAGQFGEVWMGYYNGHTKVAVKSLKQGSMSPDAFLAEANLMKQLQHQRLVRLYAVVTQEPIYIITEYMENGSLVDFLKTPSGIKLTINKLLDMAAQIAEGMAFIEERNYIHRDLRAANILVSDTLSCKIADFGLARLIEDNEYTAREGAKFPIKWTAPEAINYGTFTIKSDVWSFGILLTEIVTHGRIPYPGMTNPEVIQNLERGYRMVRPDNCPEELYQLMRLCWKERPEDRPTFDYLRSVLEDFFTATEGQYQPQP
SRC, sequence (P12931 whole entry): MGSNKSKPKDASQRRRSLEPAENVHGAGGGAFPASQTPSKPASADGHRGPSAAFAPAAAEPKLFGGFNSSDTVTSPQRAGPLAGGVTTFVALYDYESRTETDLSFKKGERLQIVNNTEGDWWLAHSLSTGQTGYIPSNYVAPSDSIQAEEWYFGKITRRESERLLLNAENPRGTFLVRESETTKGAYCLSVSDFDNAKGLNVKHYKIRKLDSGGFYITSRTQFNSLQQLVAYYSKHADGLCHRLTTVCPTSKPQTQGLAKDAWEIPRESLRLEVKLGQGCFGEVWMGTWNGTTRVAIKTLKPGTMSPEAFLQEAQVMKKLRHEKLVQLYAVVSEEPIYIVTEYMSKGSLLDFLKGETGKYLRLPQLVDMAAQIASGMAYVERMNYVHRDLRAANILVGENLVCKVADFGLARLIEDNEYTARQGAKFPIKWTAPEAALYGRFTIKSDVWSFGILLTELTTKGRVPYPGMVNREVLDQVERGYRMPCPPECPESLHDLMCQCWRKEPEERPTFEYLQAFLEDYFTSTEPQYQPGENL

Broadly, the IC50 is the concentration that inhibits the measured activity by half. As to `C[C@@H]1[C@H](NC(=O)c2ccc(SC(F)(F)F)cc2)CCCN1c1cnc(C(N)=O)c(Nc2ccc(N3CCN(C)CC3)cc2)n1` [Example D-233, 5-[(2R,3R)-2-methyl-3-{4-[(trifluoromethyl)sulfanyl]benzamido}piperidin-1-yl]-3-{[4-(4-methylpiperazin-1-yl)phenyl]amino}pyrazine-2-carboxamide], the IC50 is no more than 10 nM on BTK-WT; 100 to 1000 nM on LCK; 100 to 1000 nM against ITK; 100 to 1000 nM on EGFR; 10 to 100 nM against SRC.
In the case of `C[C@@H]1[C@H](NC(=O)c2ccc(C(C)(O)C(F)(F)F)cc2)CCCN1c1cnc(C(N)=O)c(Nc2cnn(C)c2)n1` (single isomer, unassigned) [Example D-213], the concentration for half-maximal inhibition (IC50) at BTK-WT is no more than 10 nM; at LCK, 100 to 1000 nM; against ITK, 100 to 1000 nM; against EGFR it was 1000 to 10000 nM; on SRC it was 10 to 100 nM.
Regarding `Cc1cc(Nc2nc(N3CCC[C@@H](NC(=O)N4Cc5ccccc5C4=O)C3)cnc2C(N)=O)sn1` [Example D-15, N-[(3R)-1-{5-carbamoyl-6-[(3-methyl-1,2-thiazol-5-yl)amino]pyrazin-2-yl}piperidin-3-yl]-1-oxo-2,3-dihydro-1H-isoindole-2-carboxamide], the IC50 at BTK-WT was no more than 10 nM; at LCK, 10 to 100 nM; on ITK it was 10 to 100 nM; on EGFR, 100 to 1000 nM; against SRC it was 10 to 100 nM.
Take `CCN(CC)c1ccc(C(=O)N[C@@H]2CCCN(c3cnc(C(N)=O)c(Nc4cnn(C)c4)n3)[C@@H]2C)cc1` [Example D-218, 5-[(2R,3R)-3-[4-(diethylamino)benzamido]-2-methylpiperidin-1-yl]-3-[(1-methyl-1H-pyrazol-4-yl)amino]pyrazine-2-carboxamide]: the IC50 was no more than 10 nM at BTK-WT; 100 to 1000 nM at LCK; 100 to 1000 nM against ITK; 1000 to 10000 nM against EGFR; 10 to 100 nM against SRC.
With `C[C@@H]1[C@H](NC(=O)c2ccc(C3CC3)cc2Cl)CCCN1c1cnc(C(N)=O)c(Nc2ccc(N3CCN(C)CC3)cc2)n1` [Example D-16, 5-[(2R,3R)-3-(2-chloro-4-cyclopropylbenzamido)-2-methylpiperidin-1-yl]-3-{[4-(4-methylpiperazin-1-yl)phenyl]amino}pyrazine-2-carboxamide], the IC50 is no more than 10 nM at BTK-WT; 10 to 100 nM at LCK; 100 to 1000 nM on ITK; 100 to 1000 nM at EGFR; 100 to 1000 nM on SRC.
With `Cc1cc(Nc2nc(N3CCC[C@@H](c4ncc(-c5ccccc5)[nH]4)C3)cnc2C(N)=O)sn1` [Example D-171, 3-[(3-methyl-1,2-thiazol-5-yl)amino]-5-[(3R)-3-(5-phenyl-1H-imidazol-2-yl)piperidin-1-yl]pyrazine-2-carboxamide], the IC50 at BTK-WT is 10 to 100 nM; on LCK, 100 to 1000 nM; against ITK it was greater than 10000 nM; against EGFR it was greater than 10000 nM; against SRC, 100 to 1000 nM.
`C[C@@H]1[C@H](NC(=O)c2ccc(C3(C(F)(F)F)CC3)cc2)CCCN1c1cnc(C(N)=O)c(Nc2cnn(C)c2)n1` [Example D-221, 3-[(1-Methyl-1H-pyrazol-4-yl)amino]-5-[(2R,3R)-2-methyl-3-{4-[1-(trifluoromethyl)cyclopropyl]benzamido}piperidin-1-yl]pyrazine-2-carboxamide]: the 50% inhibitory concentration (IC50) at BTK-WT was no more than 10 nM; on LCK, 100 to 1000 nM; on ITK it was 1000 to 10000 nM; at EGFR it was 1000 to 10000 nM; against SRC, 100 to 1000 nM.
Regarding `C[C@@H]1[C@H](NC(=O)c2ccc(C3(O)CCCC3)cc2)CCCN1c1cnc(C(N)=O)c(Nc2cnn(C)c2)n1` [Example D-212, 5-[(2R,3R)-3-[4-(1-hydroxycyclopentyl)benzamido]-2-methylpiperidin-1-yl]-3-[(1-methyl-1H-pyrazol-4-yl)amino]pyrazine-2-carboxamide], the IC50 at BTK-WT is no more than 10 nM; at LCK it was 100 to 1000 nM; against ITK it was 100 to 1000 nM; against EGFR it was 1000 to 10000 nM; at SRC, 10 to 100 nM.
As for `C[C@@H]1[C@H](NC(=O)N(C)C)CCCN1c1cnc(C(N)=O)c(Nc2ccc(N3CCN(C4CCCC4)CC3)cc2)n1` [Example D-182, 3-{[4-(4-cyclopentylpiperazin-1-yl)phenyl]amino}-5-[(2R,3R)-3-[(dimethylcarbamoyl)amino]-2-methylpiperidin-1-yl]pyrazine-2-carboxamide], the 50% inhibitory concentration (IC50) is no more than 10 nM on BTK-WT; 10 to 100 nM on LCK; 100 to 1000 nM on ITK; 100 to 1000 nM at EGFR; 10 to 100 nM against SRC.
As for `Cc1cc(Nc2cc(N3CCC[C@@H](NC(=O)N(C)C)[C@H]3C)cnc2C(N)=O)sn1` [Example D-175, 5-[(2R,3R)-3-[(dimethylcarbamoyl)amino]-2-methylpiperidin-1-yl]-3-[(3-methyl-1,2-thiazol-5-yl)amino]pyridine-2-carboxamide], the IC50 at BTK-WT was in the range of 10 to 100 nM; on LCK, 1000 to 10000 nM; against ITK, 1000 to 10000 nM; on EGFR, 1000 to 10000 nM; on SRC, 100 to 1000 nM.
Take `Cn1cc(Nc2nc(N3CCC[C@@H](n4ccc5cc(C6CC6)ncc5c4=O)C3)cnc2C(N)=O)cn1` [Example D-225, 5-[(3R)-3-(6-cyclopropyl-1-oxo-1,2-dihydro-2,7-naphthyridin-2-yl)piperidin-1-yl]-3-[(1-methyl-1H-pyrazol-4-yl)amino]pyrazine-2-carboxamide]: the IC50 was no more than 10 nM at BTK-WT; 100 to 1000 nM on LCK; 100 to 1000 nM at ITK; 1000 to 10000 nM against EGFR; 10 to 100 nM against SRC.
Regarding `C[C@@H]1[C@H](NC(=O)c2ccc(C(C)(C)C)cc2F)CCCN1c1cnc(C(N)=O)c(Nc2cnn(C)c2)n1` [Example D-223, 5-[(2R,3R)-3-(4-tert-butyl-2-fluorobenzamido)-2-methylpiperidin-1-yl]-3-[(1-methyl-1H-pyrazol-4-yl)amino]pyrazine-2-carboxamide], the half-inhibitory concentration (IC50) at BTK-WT is no more than 10 nM; at LCK, 100 to 1000 nM; on ITK it was 1000 to 10000 nM; on EGFR it was 1000 to 10000 nM; at SRC, 100 to 1000 nM.
For the compound `C[C@@H]1[C@H](NC(=O)c2ccc(C3CC3)c(Cl)c2)CCCN1c1cnc(C(N)=O)c(Nc2ccc(N3CCN(C)CC3)cc2)n1` [Example D-17, 5-[(2R,3R)-3-(3-chloro-4-cyclopropylbenzamido)-2-methylpiperidin-1-yl]-3-{[4-(4-methylpiperazin-1-yl)phenyl]amino}pyrazine-2-carboxamide], the IC50 on BTK-WT was no more than 10 nM; on LCK, 100 to 1000 nM; at ITK, 100 to 1000 nM; at EGFR, 1000 to 10000 nM; against SRC, 100 to 1000 nM.
In the case of `C[C@@H]1[C@H](NC(=O)c2ccc(C(C)(C)C)cn2)CCCN1c1cnc(C(N)=O)c(Nc2cnn(C)c2)n1` [Example D-208, 5-[(2R,3R)-3-(5-tert-butylpyridine-2-amido)-2-methylpiperidin-1-yl]-3-[(1-methyl-1H-pyrazol-4-yl)amino]pyrazine-2-carboxamide], the IC50 is no more than 10 nM at BTK-WT; 100 to 1000 nM at LCK; 100 to 1000 nM at ITK; 1000 to 10000 nM at EGFR; 10 to 100 nM on SRC.
